US20180071188A1, “COMPOSITION FOR THE PERMANENT DEFORMATION OF HAIR HAVING REDUCED ODOUR” (The Procter & Gamble Company, priority 2016, published 2018)

Assays:
[1] = density of malodor suppressant; assay type: physicochemical; settings: 23° C., 1.013 bar
Description: All densities relate to a temperature of 23° C. and a pressure of 1.013 bar. Density measurements are typically performed via determining the weight and the volume of the compound to be measured, or according to any other processes known to the skilled person.

[2] = Test Procedure 2: panel test rating thiol malodor of permanent shaping premix mixed with malodor suppressant system; settings: scale 0 to 5 (0=no thiol smell, 5=harsh thiol smell); 5 panelists; premix + 0.7 wt.-% suppressant system; same rating immediately and 25 min after mixing
Description: A […] performed with 5 panelists with trained expertise in the classification of thiol malodour. The panelists received a mixture of the permanent shaping premix and 0.7 wt.-% of one malodor suppressant system, as described above (stirred by a single operator for all tests). Immediately and 25 min after mixing, the panelists were asked to rate the thiol malodor according to a scale of 0 to 5 (0=no thiol smell, 5=harsh thiol smell), the mixture being passed from panelist to panelist with an additional stirring for each of the panelists. The same odor rating is obtained immediately after mixing and 25 min after mixing.

[3] = distribution coefficient log P (octanol/water); assay type: physicochemical; settings: raw material of malodor suppressant system
Source text: In the fields of organic and medicinal chemistry, a distribution (P) coefficient is the ratio of concentrations of a compound in the two phases of a mixture of two immiscible solvents at equilibrium. […] One of the solvents chosen is water while the second is octanol. […] The partition coefficient is the ratio of concentrations of un-ionized compound between the two solutions. The logarithm of the ratio of the concentrations of the un-ionized solute in the solvents is called log P:
The log P (octanol/water) is referred hereinafter as “log P”, unless otherwise specified.

Compound	density [1] [g/mL]	Odor (thiol malodor rating) [2]	log P (octanol/water) [3]	logP ([3]; octanol/water)	logP [3]
O=C(OCc1ccccc1)c1ccccc1 [S6, Benzyl benzoate]	1.129	3	–	–	–
O=C1CCCCCCCCC/C=C/CCCO1 [S2, Habanolide]	0.901	4	4.77	–	–
Operanide [S4]	1.01	2	4.90	–	–
CC1COC(C)(c2ccc3c(c2)C(C)(C)CCC3(C)C)O1 (centres unmarked) [S5, Okoumal]	0.971	3	5.79	–	–
CCCCCCCCCCCCCC(=O)OC(C)C [S1, isopropylmyristate]	0.864	3	–	7.41	–
CC1COCc2cc3c(cc21)C(C)(C)C(C)C3(C)C (centres unmarked) [S3, Galaxolide]	0.946	1-2	–	–	5.93
